# Assay results from the supplement of paper PMC10307832.
# Experiments:
# Assay in all cases: relative viability (nuclei count vs DMSO), 5 days (fraction); higher = more cells survive
# Venetoclax + Tozasertib = compound: CC1(C)CCC(CN2CCN(c3ccc(C(=O)NS(=O)(=O)c4ccc(NCC5CCOCC5)c([N+](=O)[O-])c4)c(Oc4cnc5[nH]ccc5c4)c3)CC2)=C(c2ccc(Cl)cc2)C1 [Venetoclax] + Cc1cc(Nc2cc(N3CCN(C)CC3)nc(Sc3ccc(NC(=O)C4CC4)cc3)n2)n[nH]1 [Tozasertib] (partner 0.1 µM)
# How it was run: (§1)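 Relative viability divides the nuclei count in treated wells by that in vehicle wells. Lung cancer cell lines were seeded in 1536-well plates, dosed by pin tool the next day, and fixed and stained after 5 days in one step with final 0.05% Triton X-100, 1% formaldehyde and 1 ug/ml Hoechst. Dosing was a single drug or a fixed anchor-drug dose plus five library-drug doses (not always all listed) in √10 steps, and values are medians of duplicate plates imaged at 4×.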
# Selumetinib + Bortezomib = compound: Cn1cnc2c(F)c(Nc3ccc(Br)cc3Cl)c(C(=O)NOCCO)cc21 [Selumetinib] + CC(C)C[C@H](NC(=O)[C@H](Cc1ccccc1)NC(=O)c1cnccn1)B(O)O [Bortezomib] (partner 0.002 µM)
# How it was run: as §1
# Selumetinib + Foretinib = compound: Cn1cnc2c(F)c(Nc3ccc(Br)cc3Cl)c(C(=O)NOCCO)cc21 [Selumetinib] + COc1cc2c(Oc3ccc(NC(=O)C4(C(=O)Nc5ccc(F)cc5)CC4)cc3F)ccnc2cc1OCCCN1CCOCC1 [Foretinib] (partner 0.25 µM)
# How it was run: as §1
# Selumetinib + Linsitinib = compound: Cn1cnc2c(F)c(Nc3ccc(Br)cc3Cl)c(C(=O)NOCCO)cc21 [Selumetinib] + C[C@]1(O)C[C@@H](c2nc(-c3ccc4ccc(-c5ccccc5)nc4c3)c3c(N)nccn32)C1 [Linsitinib] (partner 1 µM)
# How it was run: as §1
Cell Line,relative viability (Venetoclax + Tozasertib; first compound 0.01 µM),relative viability (Venetoclax + Tozasertib; first compound 0.03162 µM),relative viability (Venetoclax + Tozasertib; first compound 0.1 µM),relative viability (Venetoclax + Tozasertib; first compound 0.3162 µM),relative viability (Venetoclax + Tozasertib; first compound 1 µM),relative viability (Selumetinib + Bortezomib; first compound 0.02 µM),relative viability (Selumetinib + Bortezomib; first compound 0.06325 µM),relative viability (Selumetinib + Bortezomib; first compound 0.2 µM),relative viability (Selumetinib + Bortezomib; first compound 0.6325 µM),relative viability (Selumetinib + Foretinib; first compound 0.02 µM),relative viability (Selumetinib + Foretinib; first compound 0.06325 µM),relative viability (Selumetinib + Foretinib; first compound 0.2 µM),relative viability (Selumetinib + Foretinib; first compound 0.6325 µM),relative viability (Selumetinib + Linsitinib; first compound 0.02 µM),relative viability (Selumetinib + Linsitinib; first compound 0.06325 µM),relative viability (Selumetinib + Linsitinib; first compound 0.2 µM),relative viability (Selumetinib + Linsitinib; first compound 0.6325 µM)
NCI-H1975,0.763,0.711,0.726,0.658,0.374,0.324,0.282,0.262,0.221,0.992,1.09,1.03,0.724,1,0.886,0.892,0.623
SK-MES-1,0.824,0.968,0.958,0.852,0.708,–,–,–,–,0.831,0.818,0.534,0.491,1.03,1.03,0.814,0.775
NCI-H1666,0.706,0.589,0.623,0.622,0.587,0.595,0.586,0.63,0.495,0.827,0.839,0.791,0.734,0.643,0.614,0.606,0.54
NCI-H2228,0.251,0.313,0.288,0.246,0.25,0.923,0.989,0.75,0.584,0.81,0.802,0.807,0.623,0.605,0.628,0.671,0.359
HCC-44,0.747,0.978,0.894,0.791,0.715,0.993,0.882,0.945,0.971,–,–,–,–,0.701,0.639,0.539,0.575
PC-14,0.646,0.601,0.576,0.553,0.531,0.889,0.815,0.926,0.766,0.97,0.886,0.819,0.881,0.935,0.87,0.912,0.9
NCI-H1299,–,–,–,–,–,1.08,1.09,1.07,0.977,1.23,1.08,1.09,0.935,0.996,0.833,0.88,0.677
NCI-H661,0.353,0.335,0.313,0.345,0.333,0.751,0.847,0.722,0.575,1.12,0.979,1.02,0.913,0.614,0.455,0.469,0.457
HCC-827,0.417,0.413,0.4,0.416,0.385,1.22,1.03,1.02,0.975,0.942,0.983,0.989,0.86,0.848,0.929,0.931,0.894
NCI-H1915,0.452,0.454,0.392,0.433,0.427,1.07,0.877,0.747,0.617,1.16,1.03,0.812,0.529,0.768,1.02,0.926,0.539
NCI-H441,0.587,0.603,0.86,0.676,0.507,0.658,0.345,0.544,0.506,0.964,0.839,0.903,0.667,0.543,0.46,0.491,0.435
EBC-1,–,–,–,–,–,0.759,0.625,0.578,0.304,0.0932,0.0928,0.114,0.109,0.917,0.844,0.933,0.518
NCI-H1623,0.444,0.506,0.411,0.411,0.403,–,–,–,–,0.729,0.679,0.614,0.632,–,–,–,–
NCI-H2342,0.59,0.617,0.375,0.568,0.656,–,–,–,–,0.922,1.09,0.961,0.981,–,–,–,–
SW 900,0.401,0.55,0.476,0.65,0.386,–,–,–,–,0.876,0.78,0.783,0.92,–,–,–,–
NCI-H1793,0.227,0.347,0.321,0.297,0.237,–,–,–,–,0.69,0.511,0.386,0.415,0.883,0.817,0.419,0.392
IA-LM,–,–,–,–,–,0.742,0.497,0.304,0.257,0.949,0.837,0.576,0.403,0.406,0.296,0.295,0.254
NCI-H358,0.117,0.0943,0.115,0.0994,0.102,–,–,–,–,0.43,0.331,0.272,0.291,0.472,0.512,0.424,0.365
NCI-H1395,0.851,0.85,0.705,0.782,0.762,–,–,–,–,0.959,0.978,0.928,0.94,1.05,0.939,0.973,1.08
NCI-H522,0.605,0.481,0.599,0.555,0.437,–,–,–,–,–,–,–,–,–,–,–,–
A549,–,–,–,–,–,–,–,–,–,0.779,0.581,0.546,0.32,0.489,0.436,0.363,0.349
NCI-H1944,0.267,0.246,0.238,0.273,0.228,–,–,–,–,0.898,0.796,0.69,0.536,0.979,0.928,0.762,0.687
NCI-H1648,0.235,0.574,0.54,0.471,0.415,–,–,–,–,–,–,–,–,–,–,–,–
ChaGo-K-1,0.236,0.218,0.224,0.208,0.227,0.959,0.993,0.942,1.05,0.833,0.924,0.906,0.769,–,–,–,–
LK-2,0.154,0.18,0.19,0.18,0.192,–,–,–,–,1.68,1.51,0.968,1.23,0.466,0.551,0.587,0.312
